The record followed here is patent publication US20230263787A1, “ENHANCED MITOCHONDRIAL RESPONSE WITH THIOZOLIDINEDIONE, PIOGLITAZONE OR ROSIGLITAZONE” (priority 2020, published 2023).

One data set deals with DRG-OPC co-cultures. The data set is described as follows: Axon damage after lysolecithin demyelination in microfluidic chambers, drug applied to neuronal cell body chamber. Type of data set: cell-based, mouse. The conditions noted are these: 15 µM SR-18292 added together with pioglitazone to cell body chamber. The method, then:
Before adding lysolecithin to microfluidic chambers, the inventors used an Axio Observer Z1 inverted motorized microscope (Zeiss, Germany), for live imaging to identify the myelinated axonal segments (video 11, online resource). Images of the myelinated axonal segments were saved with x-y coordinates of the stage position. The effect of live imaging on the axons and myelin was determined by imaging microfluidic chamber containing both mKate2 expressing DRGs and eGFP-expressing OPC where imaged at 20x magnification (Plan-Apochromat 0.8 NA Ph 2 M27 objective, Zeiss, Germany) for 30 minutes before returning the microfluidic chambers to the incubator.
The inventors then added lysolecithin for 2 hours before live imaging the previously imaged axonal segments again, using the x-y co-ordinate of the stage position. These live images of axons, pre and post lysolecithin, allowed the assessment of the demyelination of the axonal segments (based on M1-M4-eGFP fluorescence) as well as axonal damage following acute demyelination (based on appearance of mKate2 fluorescence). […] Meanwhile, axons were classed as fragmented when the mKate2 fluorescence was disrupted and not continuous in at least one part of the axon. […] Following exposure to lysolecithin, demyelination was confirmed based on disruption or loss of M1-M4-eGFP fluorescence. […]

Data set [1] relates to DRG neurons. The conditions noted are these: 17 hours.
Procedure: Complex IV histochemistry was performed as described below and images were obtained using bright field microscopy. The intensity of the complex IV reactive product was assessed using FIJI and densitometry to analyse complex IV activity at a single cell level.
The test system of data set [2] is DRG neurons. Kind of data set: Seahorse analysis of mitochondrial respiration in DRG neurons. The conditions noted are these: sodium azide 100 µM for 16 hours.
Procedure: DRG neuronal cells were cultured on V7 Seahorse 24-well cell culture microplates (Agilent Technologies), in maintenance medium in a 5% CO2 37° C. incubator. […] Plates were incubated for 30 mins at 37° C. (without CO2), before entry into the Seahorse XFe24 Extracellular Flux Analyser (Agilent). Three measurements were taken basally, and three measurements taken after injection of each drug to either inhibit ATP-linked respiration, uncouple respiration or inhibit the respiratory chain. Mitochondrial respiration was calculated by subtracting the first OCR measurement following injection of antimycin/rotenone from the third basal OCR measurement. Normalisation of OCR to relative protein content was achieved following Sulforhodamine B (SRB) staining of all cell wells. Data for each treatment groups was averaged from between 4-5 replicate wells.
Data set [3] has as its system cerebellar slices from Shiverer mice. The data set is described as follows: Mitochondrial dynamics in dysmyelinated Purkinje cell axons of Shiverer cerebellar slices exposed to lysolecithin. The conditions noted are these: chronically dysmyelinated axons. It counts as cell-based, mouse. The method, then: Cerebellar slices were prepared as previously described. Briefly, wild type C57BL/6 and Shiverer mice pups were sacrificed at P10 and cerebellum was placed in ice-cold dissection medium. The sagittal slices were then sectioned into 300 µm thick slices and placed on a membrane insert. Picospritzer III (Parker, US) and a micromanipulator was used to inject mEOS2-Lentivirus (titre 7-8*10^9; aliquots stored at -80° C.) containing 0.025% of Fast-Green (FG, Sigma F7258, UK) in to the Purkinje cell body layer. […]
Live imaging of mitochondria in Purkinje cell axon was performed at DIV14, directly after removing the lysolecithin. […] Newly transported mitochondria, either appearing from the neuronal cell body to the most proximal 20 micron axonal segment or distal axonal mitochondria appearing in the 20 microns long axonal segment of the most distal photoconverted segment, were counted visually and confirmed using the kymograph. […] For each mitochondrion appearing, the direction of movement was noted, as well as the area of the mitochondrion was measured manually, using the measure function in Fiji, when it first appeared in the axon.
Kymographs of the time lapse images were generated by using the ImageJ plugin KymographClear2.0 [40]. Mitochondrial speed of movement was determined by using the Kymotoolbox ImageJ plugin [80]. […]

The test system of a further data set is DRG axons. The data set is described as follows: Lysolecithin exposure of unmyelinated DRG cultures (axon damage). Type of data set: cell-based, mouse. The conditions noted are these: 0.005 mg/ml lysolecithin for 2 hours.

`Cc1ccc(CN(CC(O)COc2cccc3[nH]ccc23)C(C)(C)C)cc1` (stereo not drawn) [PGC1α inhibitor, SR-18292]: the “effect on the protective effect of pioglitazone on demyelinated axons” value with DRG-OPC co-cultures was “significantly diminished”. In the case of `[N-]=[N+]=[N-]` [sodium azide], the “highest dose which did not impact cell viability and resulted in complex IV inhibition” value in the data set on DRG neurons [1] is listed as 100 µM. Besides, the cell viability entry in the data set with DRG neurons [2] is “without compromising cell viability”.

On to “L-α-Lysophosphatidylcholine [lysolecithin]”, for which, in data set [3], the “axonal mitochondrial dynamics of newly transported mitochondria” value was “does not significantly impact”. Also, in the data set with DRG axons, the “damage to DRG axons in unmyelinated cultures” value is “without damaging the DRG axons”.
